PubChem BioAssay AID2060909 (Molecular Pharmacology Branch, DTP, NCI, 2025)

Test system: 362531-283-R-J2-PDC complex spheroid viability
Test: Anticancer human tumor 362531-283-R-J2-PDC patient-derived colon adenocarcinoma cell line growth inhibition [RAS]
Details: for IC50: curve of first compound; for viability, T/C: stronger effect = lower value; active means viability on the fitted dose curve at most 10% of control; inactive means the rest
Procedure, shortened: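 Tumour cells grown as complex spheroids with HUVEC endothelial cells and mesenchymal stem cells, treated with RAS pathway inhibitor combinations. Each agent spans half-log steps from near clinical Cmax, or 10 microM where Cmax is unknown.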

[1] = second compound 0.00316 µM, first compound 0.0316 µM
[2] = second compound 0.00316 µM, first compound 0.1 µM
[3] = second compound 0.00316 µM, first compound 0.316 µM
[4] = second compound 0.00316 µM, first compound 1 µM
[5] = second compound 0.00316 µM, first compound 3.16 µM
[6] = second compound 0.00316 µM, first compound 10 µM
[7] = second compound 0.01 µM, first compound 0.0316 µM
[8] = second compound 0.01 µM, first compound 0.1 µM
[9] = second compound 0.01 µM, first compound 0.316 µM
[10] = second compound 0.01 µM, first compound 1 µM
[11] = second compound 0.01 µM, first compound 3.16 µM
[12] = second compound 0.01 µM, first compound 10 µM
[13] = second compound 0.0316 µM, first compound 0.0316 µM
[14] = second compound 0.0316 µM, first compound 0.1 µM
[15] = second compound 0.0316 µM, first compound 0.316 µM
[16] = second compound 0.0316 µM, first compound 1 µM
[17] = second compound 0.0316 µM, first compound 3.16 µM
[18] = second compound 0.0316 µM, first compound 10 µM
[19] = second compound 0.1 µM, first compound 0.0316 µM
[20] = second compound 0.1 µM, first compound 0.1 µM
[21] = second compound 0.1 µM, first compound 0.316 µM
[22] = second compound 0.1 µM, first compound 1 µM
[23] = second compound 0.1 µM, first compound 3.16 µM
[24] = second compound 0.1 µM, first compound 10 µM
[25] = second compound 0.316 µM, first compound 0.0316 µM
[26] = second compound 0.316 µM, first compound 0.1 µM
[27] = second compound 0.316 µM, first compound 0.316 µM
[28] = second compound 0.316 µM, first compound 1 µM
[29] = second compound 0.316 µM, first compound 3.16 µM
[30] = second compound 0.316 µM, first compound 10 µM
[31] = second compound 1 µM, first compound 0.0316 µM
[32] = second compound 1 µM, first compound 0.1 µM
[33] = second compound 1 µM, first compound 0.316 µM
[34] = second compound 1 µM, first compound 1 µM
[35] = second compound 1 µM, first compound 3.16 µM
[36] = second compound 1 µM, first compound 10 µM
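Further: spheroids exposed to the agents for 7 days before readout.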
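Wherever viability, T/C is given: luminescence viability as percent of DMSO vehicle control wells.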

CC(C)NCC(C(=O)N1CCN(c2ncnc3c2C(C)CC3O)CC1)c1ccc(Cl)cc1 (stereo unspecified) + C=CC(=O)N1CCN(c2nc(OCC3CCCN3C)nc3c(F)c(-c4nc(N)cc(C)c4C(F)(F)F)c(Cl)cc23)C(C)C1
> 10 µM: IC50 (second compound 0.00316 µM) | IC50 (second compound 0.01 µM) | IC50 (second compound 0.0316 µM) | IC50 (second compound 0.1 µM) | IC50 (second compound 0.316 µM) | IC50 (second compound 1 µM)
inactive: viability, T/C [1] 109% | viability, T/C [2] 98.7% | viability, T/C [3] 103% | viability, T/C [4] 91.2% | viability, T/C [5] 97% | viability, T/C [6] 92.5% | viability, T/C [7] 93.7% | viability, T/C [8] 101% | viability, T/C [9] 90.7% | viability, T/C [10] 94.6% | viability, T/C [11] 106% | viability, T/C [12] 107% | viability, T/C [13] 90.5% | viability, T/C [14] 104% | viability, T/C [15] 101% | viability, T/C [16] 102% | viability, T/C [17] 103% | viability, T/C [18] 94.9% | viability, T/C [19] 94.2% | viability, T/C [20] 94.5% | viability, T/C [21] 105% | viability, T/C [22] 96.8% | viability, T/C [23] 111% | viability, T/C [24] 102% | viability, T/C [25] 95.4% | viability, T/C [26] 105% | viability, T/C [27] 101% | viability, T/C [28] 96.8% | viability, T/C [29] 111% | viability, T/C [30] 92.5% | viability, T/C [31] 98.6% | viability, T/C [32] 101% | viability, T/C [33] 95.7% | viability, T/C [34] 102% | viability, T/C [35] 104% | viability, T/C [36] 86.8%

CC(C)n1nc(-c2ccc3oc(N)nc3c2)c2c(N)ncnc21 + C=CC(=O)N1CCN(c2nc(OCC3CCCN3C)nc3c(F)c(-c4nc(N)cc(C)c4C(F)(F)F)c(Cl)cc23)C(C)C1
inactive: viability, T/C (second compound 0.00316 µM, first compound 0.000316 µM) 97.8% | viability, T/C (second compound 0.00316 µM, first compound 0.001 µM) 91.8% | viability, T/C (second compound 0.00316 µM, first compound 0.00316 µM) 101% | viability, T/C (second compound 0.00316 µM, first compound 0.01 µM) 89.2% | viability, T/C [1] 62.9% | viability, T/C [2] 97.1% | viability, T/C (second compound 0.01 µM, first compound 0.000316 µM) 93.5% | viability, T/C (second compound 0.01 µM, first compound 0.001 µM) 92.2% | viability, T/C (second compound 0.01 µM, first compound 0.00316 µM) 105% | viability, T/C (second compound 0.01 µM, first compound 0.01 µM) 87.3% | viability, T/C [7] 54.9% | viability, T/C [8] 89.7% | viability, T/C (second compound 0.0316 µM, first compound 0.000316 µM) 100% | viability, T/C (second compound 0.0316 µM, first compound 0.001 µM) 95.9% | viability, T/C (second compound 0.0316 µM, first compound 0.00316 µM) 102% | viability, T/C (second compound 0.0316 µM, first compound 0.01 µM) 80.7% | viability, T/C [13] 65.9% | viability, T/C [14] 101% | viability, T/C (second compound 0.1 µM, first compound 0.000316 µM) 91.9% | viability, T/C (second compound 0.1 µM, first compound 0.001 µM) 93.1% | viability, T/C (second compound 0.1 µM, first compound 0.00316 µM) 99.6% | viability, T/C (second compound 0.1 µM, first compound 0.01 µM) 87% | viability, T/C [19] 86.2% | viability, T/C [20] 64.5% | viability, T/C (second compound 0.316 µM, first compound 0.000316 µM) 107% | viability, T/C (second compound 0.316 µM, first compound 0.001 µM) 106% | viability, T/C (second compound 0.316 µM, first compound 0.00316 µM) 104% | viability, T/C (second compound 0.316 µM, first compound 0.01 µM) 106% | viability, T/C [25] 68.2% | viability, T/C [26] 82.7% | viability, T/C (second compound 1 µM, first compound 0.000316 µM) 107% | viability, T/C (second compound 1 µM, first compound 0.001 µM) 105% | viability, T/C (second compound 1 µM, first compound 0.00316 µM) 97% | viability, T/C (second compound 1 µM, first compound 0.01 µM) 107% | viability, T/C [31] 49.6% | viability, T/C [32] 81.5%
> 0.1 µM: IC50 (second compound 0.00316 µM) | IC50 (second compound 0.01 µM) | IC50 (second compound 0.0316 µM) | IC50 (second compound 0.1 µM) | IC50 (second compound 0.316 µM) | IC50 (second compound 1 µM)

C[C@@H](NC(=O)c1ncnc(N)c1Cl)c1ncc(C(=O)Nc2cc(C(F)(F)F)c(Cl)cn2)s1 + C=CC(=O)N1CCN(c2nc(OCC3CCCN3C)nc3c(F)c(-c4nc(N)cc(C)c4C(F)(F)F)c(Cl)cc23)C(C)C1
> 10 µM: IC50 (second compound 0.00316 µM) | IC50 (second compound 0.01 µM) | IC50 (second compound 0.0316 µM) | IC50 (second compound 0.1 µM) | IC50 (second compound 0.316 µM) | IC50 (second compound 1 µM)
inactive: viability, T/C [1] 102% | viability, T/C [2] 109% | viability, T/C [3] 115% | viability, T/C [4] 99.1% | viability, T/C [5] 84.9% | viability, T/C [6] 63.8% | viability, T/C [7] 103% | viability, T/C [8] 95% | viability, T/C [9] 93.1% | viability, T/C [10] 97.6% | viability, T/C [11] 87.3% | viability, T/C [12] 67.4% | viability, T/C [13] 107% | viability, T/C [14] 99.7% | viability, T/C [15] 98.6% | viability, T/C [16] 105% | viability, T/C [17] 91.2% | viability, T/C [18] 63.4% | viability, T/C [19] 104% | viability, T/C [20] 112% | viability, T/C [21] 97.9% | viability, T/C [22] 96.3% | viability, T/C [23] 99.9% | viability, T/C [24] 60.3% | viability, T/C [25] 103% | viability, T/C [26] 95.2% | viability, T/C [27] 100% | viability, T/C [28] 103% | viability, T/C [29] 102% | viability, T/C [30] 67.2% | viability, T/C [31] 107% | viability, T/C [32] 104% | viability, T/C [33] 99.3% | viability, T/C [34] 106% | viability, T/C [35] 97.7% | viability, T/C [36] 63.6%
